Experimental data from patent publication US20080045514A1 (Cytovia, Inc., priority 2006, published 2008).
Structures can show the parent of a compound that is named as a salt.

Columns and labels:
Assay type in all cases: cell-based
[1] = system: human cancer cell line H1299; assay: Caspase cascade activation (EC50), H1299; details: NCI-H1299, H1299 cells, read-out: caspase potency (EC50) H1299
Experimental: (§1) Human breast cancer cell lines T-47D, human hepatocellular carcinoma cell line SNU398, human colon carcinoma cell line HCT116, human cancer cell line H1299, human Burkitt's lymphoma cell line Namalwa, human lymphoma cell line Raji, and human B cell lymphoblastoid cell line Ramos were grown according to media component mixtures designated by American Type Culture Collection+10% FCS (Invitrogen Corporation), in a 5% CO2-95% humidity incubator at 37° C. T-47D and H1299 cells were maintained at a cell density between 50 and 80% confluency at a cell density of 0.1 to 0.6×10^6 cells/mL. Cells were harvested at 600×g and resuspended at 0.65×10^6 cells/mL into appropriate media+10% FCS. An aliquot of 22.5 μL of cells was added to a well of a 384-well microtiter plate containing 2.5 μL of a 10% DMSO in RPMI-1640 media solution containing 0.16 to 100 μM of 3-(2-chlorophenyl)-6-(3,4-methylenedioxyphenyl)-7H-[1,2,4]triazolo[3,4-b][1,3,4]thiadiazine or other test compound (0.016 to 10 μM final). An aliquot of 22.5 μL of cells was added to a well of a 384-well microtiter plate containing 2.5 μL of a 10% DMSO in RPMI-1640 media solution without test compound as the control sample. The samples were mixed by agitation and then incubated at 37° C. for 48 h in a 5% CO2-95% humidity incubator. After incubation, the samples were removed from the incubator and 25 μL of a solution containing 14 μM of N—(Ac-DEVD)-N′-ethoxycarbonyl-R110 (SEQ ID No.:1) fluorogenic substrate (Cytovia, Inc.; WO99/18856), 20% sucrose (Sigma), 20 mM DTT (Sigma), 200 mM NaCl (Sigma), 40 mM Na PIPES buffer pH 7.2 (Sigma), and 500 μg/mL lysolecithin (Calbiochem) was added. The samples were mixed by agitation and incubated at room temperature. Using a fluorescent plate reader (Model SPECTRAfluor Plus, Tecan), an initial reading (T=0) was made approximately 1-2 min after addition of the substrate solution, employing excitation at 485 nm and emission at 530 nm, to determine the background fluorescence of the control sample. After the 3 h incubation, the samples were read for fluorescence as above (T=3 h). Calculation: The Relative Fluorescence Unit values (RFU) were used to calculate the sample readings as follows: RFU(T=3H)−Control RFU(T=0)=Net RFU(T=3h) The activity of caspase cascade activation was determined by the ratio of the net RFU value for 3-(2-chlorophenyl)-6-(3,4-methylenedioxyphenyl)-7H-[1,2,4]triazolo[3,4-b][1,3,4]thiadiazine (Example P) or other test compound to that of control samples. The EC50 (nM) was determined by a sigmoidal dose-response calculation (Prism 3.0, GraphPad Software Inc.).

[2] = system: human hepatocellular carcinoma cell line SNU398; assay: Caspase cascade activation (EC50), SNU398; details: Homo sapiens, SNU-398; SNU398 cells; caspase cascade activation; read-out: caspase potency (EC50) SNU398
In short: (§2)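 Cells in ATCC medium plus 10% FCS, seeded at 0.65×10^6 cells/mL, incubated with compound at 0.016 to 10 μM final, 48 h, 37 °C. Lysis-substrate buffer (14 μM DEVD-R110, 20 mM DTT, pH 7.2, lysolecithin) added; fluorescence read after 3 h at room temperature.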

[3] = system: human breast cancer cell line T-47D; assay: Caspase cascade activation (EC50), T-47D; details: Homo sapiens; T47D cells; caspase cascade activation; read-out: caspase potency (EC50) T47D
In short: as §2

[4] = system: human colon carcinoma cell line HCT116; assay: Caspase cascade activation (EC50), HCT116; details: Homo sapiens, HCT-116; HCT116 cells; caspase cascade activation; read-out: caspase potency (EC50) HCT116
In short: as §2

[5] = system: human Burkitt's lymphoma cell line Namalwa; assay: Caspase cascade activation (EC50), Namalwa; details: Homo sapiens, Burkitts lymphoma cell; Namalwa cells; caspase cascade activation; read-out: caspase potency (EC50) Namalwa
In short: as §2

[6] = system: human B cell lymphoblastoid cell line Ramos; assay: Caspase cascade activation (EC50), Ramos; details: Homo sapiens, RAMOS cells, read-out: caspase potency (EC50) RAMOS
Experimental: as §1

[7] = system: human lymphoma cell line Raji; assay: Caspase cascade activation (EC50), Raji; details: Homo sapiens, RAJI cells, read-out: caspase potency (EC50) RAJI
Experimental: as §1

Row | SMILES | EC50 [1] [nM] | EC50 [2] [nM] | EC50 [3] [nM] | EC50 [4] [nM] | EC50 [5] [nM] | EC50 [6] [nM] | EC50 [7] [nM]
1 | CCOc1cccc(-c2nnc3n2N=C(c2ccc(OC)cc2)CS3)c1 [Example D1, 3-(3-Ethoxyphenyl)-6-(4-methoxyphenyl)-7H-[1,2,4]triazolo[3,4-b][1,3,4]thiadiazine] | 2710 | 778 | 2300 | 1500 |  |  | 
2 | CCOc1ccc(C2=Nn3c(nnc3-c3ccccc3OC)SC2)cc1 [Example B2, 3-(2-Methoxyphenyl)-6-(4-ethoxyphenyl)-7H-[1,2,4]triazolo[3,4-b][1,3,4]thiadiazine] | 106 | 30 | 175 | 40 | 106 |  | 
3 | COc1cc(-c2nnc3n2N=C(c2ccccc2)CS3)cc(OC)c1OC [Example S1, 3-(3,4,5-Trimethoxyphenyl)-6-phenyl-7H-[1,2,4]triazolo[3,4-b][1,3,4]thiadiazine] | 1260 | 226 | 323 | 284 | 313 | 316 | 619
4 | Clc1cccc(-c2nnc3n2N=C(c2ccc4c(c2)OCO4)CS3)c1 [S, 3-(3-Chlorophenyl)-6-(3,4-methylenedioxyphenyl)-7H-[1,2,4]triazolo[3,4-b][1,3,4]thiadiazine] | > 10000 | 1630 | > 10000 | > 10000 | > 10000 | > 1000 | > 1000
5 | CCOc1ccc(C2=Nn3c(nnc3-c3ccc(OC)cc3)SC2)cc1 [I, 3-(4-Methoxyphenyl)-6-(4-ethoxyphenyl)-7H-[1,2,4]triazolo[3,4-b][1,3,4]thiadiazine] | 1820 | 1010 | 2490 | 1580 |  |  | 
6 | CCOc1ccc(C2=Nn3c(nnc3-c3ccc(Cl)cc3Cl)SC2)cc1 [Example H1, 3-(2,4-Dichlorophenyl)-6-(4-ethoxyphenyl)-7H-[1,2,4]triazolo[3,4-b][1,3,4]thiadiazine] | 2010 | 41 | 553 | 161 |  |  | 
7 | Clc1ccc(-c2nnc3n2N=C(c2ccccc2)CS3)c(Cl)c1 [Example J1, 3-(2,4-Dichlorophenyl)-6-phenyl-7H-[1,2,4]triazolo[3,4-b][1,3,4]thiadiazine] | 2590 |  | 2870 |  |  |  | 
8 | Clc1ccccc1-c1nnc2n1N=C(c1ccc(Br)cc1)CS2 [Q, 3-(2-Chlorophenyl)-6-(4-bromophenyl)-7H-[1,2,4]triazolo[3,4-b][1,3,4]thiadiazine] | 5140 |  | 5350 |  |  |  | 
9 | COc1ccc(C2=Nn3c(nnc3-c3ccc(Cl)cc3)SC2)cc1OC [E, 3-(4-Chlorophenyl)-6-(3,4-dimethoxyphenyl)-7H-[1,2,4]triazolo[3,4-b][1,3,4]thiadiazine] | 2100 |  | 1880 |  |  |  | 
10 | Cc1cccc(-c2nnc3n2N=C(c2ccc4ccccc4c2)CS3)c1 [U, 3-(3-Methylphenyl)-6-(2-naphthyl)-7H-[1,2,4]triazolo[3,4-b][1,3,4]thiadiazine] | 3570 |  | 5540 |  |  |  | 
11 | COc1ccc(C2=Nn3c(nnc3-c3ccc(C)cc3)SC2)cc1OC [A, 3-(4-Methylphenyl)-6-(3,4-dimethoxyphenyl)-7H-[1,2,4]triazolo[3,4-b][1,3,4]thiadiazine] | 2730 |  | 2420 |  |  |  | 
12 | CCOc1ccc(C2=Nn3c(nnc3-c3cccc(OC)c3)SC2)cc1 [Z, 3-(3-Methoxyphenyl)-6-(4-ethoxyphenyl)-7H-[1,2,4]triazolo[3,4-b][1,3,4]thiadiazine] | 2330 | 331 | 2810 | 693 |  |  | 
13 | CCOc1ccc(-c2nnc3n2N=C(c2ccc(O)c(O)c2)CS3)cc1 [Example F1, 3-(4-Ethoxyphenyl)-6-(3,4-dihydroxyphenyl)-7H-[1,2,4]triazolo[3,4-b][1,3,4]thiadiazine] | 2640 |  | 2580 |  |  |  | 
14 | COc1cccc(-c2nnc3n2N=C(c2ccc4ccccc4c2)CS3)c1 [Example B1, 3-(3-Methoxyphenyl)-6-(2-naphthyl)-7H-[1,2,4]triazolo[3,4-b][1,3,4]thiadiazine] | 1710 | 930 | 1420 | 1310 |  |  | 
15 | CCOc1ccc(C2=Nn3c(nnc3-c3ccccc3Cl)SC2)cc1 [O, 3-(2-Chlorophenyl)-6-(4-ethoxyphenyl)-7H-[1,2,4]triazolo[3,4-b][1,3,4]thiadiazine] | 1000 | 129 | 1340 | 279 |  |  | 
16 | CCOc1ccc(C2=Nn3c(nnc3-c3ccc(F)cc3)SC2)cc1 [Example P2, 3-(4-Fluorophenyl)-6-(4-ethoxyphenyl)-7H-[1,2,4]triazolo[3,4-b][1,3,4]thiadiazine] |  | 473 | 2160 | 1470 | 880 | 660 | 901
17 | CCc1nnc2n1N=C(c1ccc(OC)cc1)CS2 [Example J2, 3-Ethyl-6-(4-methoxyphenyl)-7H-[1,2,4]triazolo[3,4-b][1,3,4]thiadiazine] |  | 5080 | 5630 | > 10000 | > 10000 | 5420 | 5560
18 | Cc1ccc(-c2nnc3n2N=C(c2ccc4c(c2)OCO4)CS3)cc1 [C, 3-(4-Methylphenyl)-6-(3,4-methylenedioxyphenyl)-7H-[1,2,4]triazolo[3,4-b][1,3,4]thiadiazine] |  | 599 | 683 | > 10000 | 580 | 711 | 568
19 | CCOc1ccc(C2=Nn3c(nnc3-c3cccc(C)c3)SC2)cc1 [Example O2, 3-(3-Methylphenyl)-6-(4-ethoxyphenyl)-7H-[1,2,4]triazolo[3,4-b][1,3,4]thiadiazine] |  | 433 | 1420 | 665 | 635 | 597 | 641
20 | COc1cc(-c2nnc3n2N=C(c2ccc(F)cc2)CS3)cc(OC)c1OC [Example V1, 3-(3,4,5-Trimethoxyphenyl)-6-(4-fluorophenyl)-7H-[1,2,4]triazolo[3,4-b][1,3,4]thiadiazine] |  | 1040 | 1320 | > 10000 | 321 | 463 | 622
21 | Oc1ccc(C2=Nn3c(nnc3-c3ccc(Cl)cc3)SC2)cc1 [Example 6, 3-(4-Chlorophenyl)-6-(4-hydroxyphenyl)-7H-[1,2,4]triazolo[3,4-b][1,3,4]thiadiazine hydrobromide] |  | 5430 | 855 | > 10000 | > 10000 | 7650 | > 10000
22 | Fc1ccccc1-c1nnc2n1N=C(c1ccc3c(c1)OCO3)CS2 [Example Q1, 3-(2-Fluorophenyl)-6-(3,4-methylenedioxyphenyl)-7H-[1,2,4]triazolo[3,4-b][1,3,4]thiadiazine] |  | 257 | 277 | 551 | 250 | 264 | 484
